Assay results published in article PMC4563140 (EBioMedicine, 2015).
≈ marks a conversion by molar mass, not a printed value. Where “and” joins values, the source holds several entries; their conditions need not be identical. Equal values may be shown once. Read-outs that look alike come from different tables or passages of the source.

Experiments:
[1] = test system: M.tb isolates from BALB/c mice after four months of treatment; experiment: microbe, parasite or virus in culture; type: cell-based; conditions: Mycobacterium tuberculosis, read-out: minimum inhibitory concentration
M.tb H37Rv = experiment: Relapse 3 months after ending treatment, BALB/c mice; type: in vivo
wild type H37Rv = experiment: microbe, parasite or virus in culture; type: cell-based; conditions: Mycobacterium tuberculosis, read-out: minimal inhibitory concentration
[2] = test system: bone marrow-derived macrophages (BMDM) from BALB/c and C3HeB/FeJ mice; type: cell-based
[3] = Observation of adverse effects in mice during the study period; type: in vivo; conditions: tofacitinib 30 mg/kg/day (the higher dose)
[4] = for rifampin area under curve (0–18 h): rifampin 10 mg/kg
[5] = test system: JAK tyrosine kinase activity; conditions: ref Dowty et al., 2014; cited from earlier work
[6] = human, recommended doses; ref Dowty et al., 2014; cited from earlier work

NNC(=O)c1ccncc1 [isoniazid]
MIC [1]: 0.04 µg/mL (≈ 0.292 µM)

C[C@@H]1CCN(C(=O)CC#N)C[C@@H]1N(C)c1ncnc2[nH]ccc12 [tofacitinib]
relapse rate, Std-Rx plus tofacitinib versus Std-Rx alone (M.tb H37Rv): did not differ
MIC (wild type H37Rv): > 64 µg/mL
effect on cytokine levels (TNF-α, IL-1β) of BMDMs [2]: did not alter the cytokine levels
adverse effects in mice [3]: did not observe any adverse effects
peak tofacitinib serum concentration in mice during PK experiments ([4]; as stated in section 3.3): 3 µg/mL
effect of tofacitinib co-administration on the serum concentration of rifampin ([4]; mice, tofacitinib 15, 22.5, 30 mg/kg/day with rifampin 10 mg/kg): no effect
concentration of tofacitinib 2 h after the dose ([4]; mouse serum, with or without co-administration of rifampin, all doses tested): 250 to 500 ng/mL
average exposure in mice relative to patients with rheumatoid arthritis on 10 mg per day ([4]; tofacitinib 30 mg/kg/day in two divided doses): at least three to five
concentration of tofacitinib required to inhibit JAK tyrosine kinase activity [5]: 100 nM and 31.2 ng/mL
elimination half-life [6]: ~ 3 h

CO[C@H]1/C=C/O[C@@]2(C)Oc3c(C)c(O)c4c(O)c(c(/C=N/N5CCN(C)CC5)c(O)c4c3C2=O)NC(=O)/C(C)=C\C=C\[C@H](C)[C@H](O)[C@@H](C)[C@@H](O)[C@@H](C)[C@H](OC(C)=O)[C@@H]1C [rifampin]
MIC [1]: 0.25 µg/mL (≈ 0.304 µM)
rifampin area under curve (0–18 h) ([4]; mouse serum, co-administered tofacitinib 15 mg/kg): 77 μg/ml·H
rifampin area under curve (0–18 h) ([4]; mouse serum, co-administered tofacitinib 22.5 mg/kg): 93 μg/ml·H
rifampin area under curve (0–18 h) ([4]; mouse serum, co-administered tofacitinib 30 mg/kg): 103 μg/ml·H
